# Laboratory results reported in patent publication US20240002379A1, “ASYMMETRIC CONJUGATE COMPOUNDS” (Pheon Therapeutics Ltd., priority 2016, published 2024).
# Tested on: linear double-stranded 32P-end-labelled TyrT DNA fragment
# Test: DNA interstrand cross-linking assay, denaturing polyacrylamide gel
# Format: biochemical
# Conditions: overnight incubation at 37° C., 10 concentrations tested, assay repeated twice
# Method: The ability of 13 to cross-link DNA was determined using an assay involving a linear double-stranded TyrT fragment (FIG. 8).
# Following denaturation conditions (treatment with formamide and heating at 65° C. for 5 min) the DNA strands were completely separated (see controls C2 and C4, FIG. 9). The presence of an interstrand cross-link holds the denatured strands in close proximity, and cross-linked adducts therefore run as double-stranded DNA on polyacrylamide gel.
# The preparation of the TyrT DNA fragment (FIG. 8) and HexARev DNA fragment (FIG. 15) have been previously described (34). Briefly, the sequence which had been cloned into the BamHI site of pUC18 was obtained by cutting with HindIII and EcoRI. Radiolabelled DNA fragments were prepared by filling in the 3′-end of the HindIII site with [α-^32P]dATP using Klenow DNA polymerase (exo-).
# The radiolabelled DNA fragment was separated from the remainder of the plasmid DNA on a 6% non-denaturing polyacrylamide gel. The gel (20 cm long, 0.3 mm thick) was run at 400 V in 1×TBE running buffer for about 1-2 h, until the bromophenol blue had run most of the way down the gel. The glass plates were separated and the position of the labelled DNA fragment was established by short (1 min) exposure to an X-ray film. […]
compound,measurement,value
"COc1cc2c(cc1OCCCC(=O)N1C[C@@H](CCl)c3c1cc(O)c1ccccc31)N=C[C@@H]1CCCCN1C2=O [Compound 13, (S)-3-(4-((S)-1-(Chloromethyl)-5-hydroxy-1,2-dihydro-3H-benzo[e]indol-3-yl)-4-oxobutoxy)-2-methoxy-7,8,9,10-tetrahydrobenzo[e]-pyrido[1,2-a][1,4]diazepin-12(6aH)-one]",lowest concentration at which DNA cross-links are visible,10 nM
